Data reported in ChEMBL document CHEMBL5104094, “Chemistry, biosynthesis and biological activity of terpenoids and meroterpenoids in bacteria and fungi isolated from different marine habitats” (Eur J Med Chem, 2021).
Converted amounts (≈) assume the structure as drawn.

Experiments:
HCT-116 [1] = test: Cytotoxicity against human HCT-116 cells assessed as lethal dose; format: functional; conditions: read-out: LD50 (the source's name)
RAW264.7 = test: Inhibition of NO production in LPS-stimulated mouse RAW264.7 cells at 10 uM relative to control; format: functional
[2] = Hemolytic activity against human erythrocytes assessed as induction of cell lysis; format: toxicity, cell-based, Erythrocyte
[3] = tested on: Panel NCI-60 (60 carcinoma cell lines); test: Cytotoxicity against human Panel NCI-60 (60 carcinoma cell lines) cells assessed as cell growth inhibition; format: functional, cell-based
Staphylococcus aureus = test: Antimicrobial activity against Staphylococcus aureus assessed as microbial growth inhibition micro broth dilution assay; format: functional, organism-based
Cryptococcus neoformans = test: Antimicrobial activity against Cryptococcus neoformans assessed as microbial growth inhibition micro broth dilution assay; format: functional, organism-based
Bacillus subtilis = test: Antimicrobial activity against Bacillus subtilis assessed as microbial growth inhibition micro broth dilution assay; format: functional, organism-based
Candida albicans = test: Antimicrobial activity against Candida albicans assessed as microbial growth inhibition micro broth dilution assay; format: functional, organism-based
Candida parapsilosis = test: Antimicrobial activity against Candida parapsilosis assessed as microbial growth inhibition micro broth dilution assay; format: functional, organism-based; conditions: Lodderomyces parapsilosis
HCT-116 [4] = test: Cytotoxicity against human HCT-116 cells assessed as cell growth inhibition incubated for 72 hrs by Cell Titer Glo assay; format: functional, cell-based; conditions: HCT-116, 72 h
[5] = Cytotoxicity against human BJ cells assessed as cell growth inhibition incubated for 72 hrs by Cell Titer Glo assay relative to control; format: toxicity, cell-based
HL-60 [6] = test: Cytotoxicity against human HL-60 cells assessed as cell growth inhibition; format: functional, cell-based
A549 [7] = test: Cytotoxicity against human A549 cells assessed as cell growth inhibition; format: functional, cell-based
MCF7 [8] = test: Cytotoxicity against human MCF7 cells assessed as cell growth inhibition by Alamar blue staining based fluorescence assay; format: functional
[9] = Cytotoxicity against African green monkey cells assessed as cell growth inhibition by Alamar blue staining based fluorescence assay; format: toxicity; conditions: African green monkey (Chlorocebus sabaeus), Vero cells
HCT-116 [10] = test: Cytotoxicity against human HCT-116 cells assessed as cell growth inhibition by Alamar blue staining based fluorescence assay; format: functional
[11] = Cytotoxicity against human HTB26 cells assessed as cell growth inhibition by Alamar blue staining based fluorescence assay; format: functional
T-cell = test: Cytotoxicity against mouse spleen T-cells assessed as cell growth inhibition; format: functional, cell-based
Macrophage = test: Cytotoxicity against mouse spleen macrophage assessed as cell growth inhibition; format: functional, cell-based
A549 [12] = test: Cytotoxicity against human A549 cells assessed as cell growth inhibition by SRB assay; format: functional, cell-based
HL-60 [13] = test: Cytotoxicity against human HL-60 cells assessed as cell growth inhibition by MTT assay; format: functional, cell-based
NCI-H460 [14] = test: Cytotoxicity against human NCI-H460 cells assessed as cell growth inhibition incubated for 48 hrs by MTT assay; format: functional, cell-based; conditions: NCI-H460, 48 h
NCI-H460 [15] = test: Induction of apoptosis in human NCI-H460 cells assessed as fold increase in […] at 35 uM incubated for 48 hrs by Annexin V-FITC/PI staining based flow cytometry; format: functional
MCF7 [16] = test: Antitumor activity against human MCF7 cells xenografted in athymic nude BALB/c mouse assessed as tumor growth inhibition at 20 mg/kg, iv measured every 4 days for 40 days by caliper method relative to PTX; format: functional; conditions: MCF7, 960 h, time 40 day, read-out: TGI
MCF7 [17] = test: Antitumor activity against human MCF7 cells xenografted in athymic nude BALB/c mouse assessed as tumor growth inhibition at 5 mg/kg, iv measured every 4 days for 40 days by caliper method relative to control; format: functional; conditions: MCF7, 960 h, time 40 day, read-out: TGI
MCF7 [18] = test: Antitumor activity against Adriamycin-resistant human MCF7 cells xenografted in athymic nude BALB/c mouse assessed as tumor growth inhibition at 5 mg/kg, iv measured every 4 days for 40 days by caliper method in presence of Adriamycin relative to control; format: functional; conditions: MCF7, 960 h, time 40 day, read-out: TGI
MCF7 [19] = test: Antitumor activity against Adriamycin-resistant human MCF7 cells xenografted in athymic nude BALB/c mouse assessed as tumor growth inhibition at 5 mg/kg, iv measured every 4 days for 40 days by caliper method relative to control; format: functional; conditions: MCF7, 960 h, time 40 day, read-out: TGI
MCF7 [20] = test: Antitumor activity against human MCF7 cells xenografted in athymic nude BALB/c mouse assessed as tumor growth inhibition at 10 mg/kg, iv measured every 4 days for 40 days by caliper method relative to control; format: functional; conditions: MCF7, 960 h, time 40 day, read-out: TGI
MCF7 [21] = test: Antitumor activity against human MCF7 cells xenografted in athymic nude BALB/c mouse assessed as tumor growth inhibition at 20 mg/kg, iv measured every 4 days for 40 days by caliper method relative to control; format: functional; conditions: MCF7, 960 h, time 40 day, read-out: TGI
NCI-H460 [22] = test: Cytotoxicity against human NCI-H460 assessed as inhibition of cell viability incubated for 48 hrs by MTT assay; format: functional, cell-based; conditions: NCI-H460, 48 h
NCI-H446 = test: Cytotoxicity against human NCI-H446 assessed as inhibition of cell viability incubated for 48 hrs by MTT assay; format: functional, cell-based; conditions: NCI-H446, 48 h
SMMC-7721 [23] = test: Cytotoxicity against human SMMC-7721 cells assessed as cell growth inhibition incubated for 24 hrs by CCK8 assay; format: functional, cell-based; conditions: SMMC-7721, 24 h
SMMC-7721 [24] = test: Cytotoxicity against human SMMC-7721 cells assessed as cell growth inhibition incubated for 48 hrs by CCK8 assay; format: functional, cell-based; conditions: SMMC-7721, 48 h

With COc1cc(OC)c2c(c1)[C@H]([C@H](O)/C=C(\C)CC[C@@H]1C(C)=CC[C@@H]3C(C)(C)CCC[C@@]13C)CCC2=O as the compound, how does the CC50 (HCT-116 [1]) read?
Its CC50 is 2 µg/mL (≈ 4.04 µM).

Which inhibition at 10 µM (RAW264.7) does the source give for CC1=CC(=O)C[C@@]2(C)CC[C@@H](C(C)CO)C[C@H]12 (stereo partly drawn) here?
The inhibition at 10 µM was 22.5%.

For Cc1cc2c(c(=O)o1)C[C@@H]1[C@@]3(C)[C@H](O)CC(=O)OC(C)(C)[C@@H]3[C@H](O)C[C@@]1(C)O2, which EC50 [2] is on record?
The EC50 was 1150 µM.

Which IC50 [3] does the source give for CC1=CCC[C@@H](C)[C@]1(C)CC[C@@]1(C)c2c(O)cc3c(c2O[C@@H]1C)C(=O)C(C)=C(O)C3=O here?
The IC50 was 10 µM.

With CC1=CC[C@@](O)([C@@]2(C)CCC(=O)O2)C[C@@H]1O as the compound, how does the IC50 (Staphylococcus aureus) read?
The IC50 was 3 µg/mL.

What about the IC50 (Cryptococcus neoformans) of the same compound?
Its IC50 is 3 µg/mL.

And the IC50 (Bacillus subtilis)?
The IC50 was 3 µg/mL.

And the IC50 (Candida albicans)?
The IC50 was 3 µg/mL.

What about the IC50 (Candida parapsilosis) of the same compound?
Its IC50 is 3 µg/mL.

With CC1(C)CCC[C@]2(C)[C@H]3Cc4c(c(O)c(O)c5nc(C(=O)O)ccc45)O[C@]3(C)CC[C@@H]12 as the compound, how does the IC50 (HCT-116 [4]) read?
Its IC50 is 10 µM.

And the inhibition at 72 h [5]?
The inhibition at 72 h was 43%.

With CC1(C)CCC[C@@](C)(c2ccc(CO)cc2O)O1 as the compound, how does the IC50 (HL-60 [6]) read?
Its IC50 is greater than 50 µg/mL.

And the IC50 (A549 [7])?
Its IC50 is greater than 50 µg/mL.

For C=C(C)C1C[C@H](O)C2(C)CCCC3C2C1CC(C)C3(C)CC/C(C)=C/[C@@H](O)[C@@H]1CCC(=O)c2c(OC)cc(OC)cc21 (stereo partly drawn), which IC50 (MCF7 [8]) is on record?
The IC50 was 7.8 µM.

And the IC50 [9]?
The IC50 was 23.7 µM.

What about the IC50 (HCT-116 [10]) of the same compound?
The IC50 was 11.9 µM.

And the IC50 [11]?
Its IC50 is 10.1 µM.

Which results are given for CC(=O)c1nncc2c1C(=O)C1=C(OC(C)(C)[C@H](Cl)C1=O)[C@]2(O)C[C@H]1C(C)(C)[C@@H](Cl)CC[C@]1(C)O?
IC50 (T-cell): 40 µM; IC50 (Macrophage): 40 µM

Which results are given for CO[C@]12C=C3[C@@H]4O[C@@H]4[C@H](OC(C)=O)[C@H](C)[C@@]3(C)C[C@]13O[C@]3(C)CO2?
IC50 (A549 [12]): 5.2 µM; IC50 (HL-60 [13]): 28.3 µM

With C[C@]12C3=CC(=O)OCC3=C[C@H]3OC(=O)[C@@](C)(C=C[C@H]1O)[C@H]32 [ASPEROLIDE A] as the compound, how does the IC50 (NCI-H460 [14]) read?
The IC50 was 17.7 µM.

What about the “fold change (FC)” value (NCI-H460 [15]) of the same compound?
Its value is 2.9.

Which results are given for CO[C@H]1O[C@@]2(OC)C[C@@](C)(O)[C@H]3C[C@@]4(C)CC[C@H]([C@@H](C)/C=C\C=C(C)C)[C@@H]4C/C=C/1[C@H]32 [OPHIOBOLIN O]?
inhibition in vivo at 20 mg/kg (MCF7 [16]): 73%; inhibition in vivo at 5 mg/kg (MCF7 [17]): 35%; inhibition in vivo at 5 mg/kg (MCF7 [18]): 71%; inhibition in vivo at 5 mg/kg (MCF7 [19]): 23%; inhibition in vivo at 10 mg/kg (MCF7 [20]): 46%; inhibition in vivo at 20 mg/kg (MCF7 [21]): 69%

With C[C@@]12C3=CC(=O)OCC3=C[C@H]3OC(=O)[C@](C)([C@H]31)[C@@H](O)[C@H]1O[C@H]12 [WENTILACTONE A] as the compound, how does the IC50 (NCI-H460 [22]) read?
The IC50 was 5.56 µM.

And the IC50 (NCI-H446)?
The IC50 was 1.9 µM.

What does the source list for C[C@@]12C[C@@H](O)C[C@]3(C)C4=CC(=O)OCC4=C[C@@H](OC1=O)[C@@H]23 [WENTILACTONE B]?
IC50 (SMMC-7721 [23]): 31 µM; IC50 (SMMC-7721 [24]): 19 µM
